Results as given in patent US20050119288A1, “Dosing schedule for a novel anticancer agent” (Pfizer Inc, priority 2003, published 2005).
Marks after values point to notes of the source that are not given here.

Experiments:
FRE/erbB2 tumors = assay: FRE/erbB2 tumor growth in athymic mice; format: in vivo, murine; settings: for % GI (% Growth Inhibition): day 7
Excerpt: (§1) The in vivo anti-tumor activity of the compounds for use in the methods of the present invention can be determined by the amount of inhibition of tumor growth by a test compound relative to a control. The tumor growth inhibitory effects of various compounds can be measured according to the method of Corbett T. H., et al., “Tumor Induction Relationships in Development of Transplantable Cancers of the Colon in Mice for Chemotherapy Assays, with a Note on Carcinogen Structure”, Cancer Res., 35, 2434-2439 (1975) and Corbett T. H., et al., “A Mouse Colon-tumor Model for Experimental Therapy”, Cancer Chemother. Rep. (Part 2)”, 5, 169-186 (1975), with slight modifications. Tumors can be induced in the left flank of mice by subcutaneous (sc) injection of 1-5 million log phase cultured tumor cells suspended in 0.1 ml RPMI 1640 medium. After sufficient time has elapsed for the tumors to become palpable (˜100-150 mm^3 in size/5-6 mm in diameter) the test animals (athymic female mice) are treated with test compound (formulated at a concentration of 10 to 15 mg/ml in 5 Gelucire or 0.5% methyl cellulose) by the intravenous (iv) or oral (po) route of administration once or twice daily for 7 to 29 consecutive days. In order to determine an anti-tumor effect, the tumor is measured in millimeters with a Vernier caliper across two diameters and the tumor size (mm^3) is calculated using the formula: Tumor size (mm^3)=(W×W)/2×L (L=length and W=width), according to the methods of Geran, R. I., et al. “Protocols for Screening Chemical Agents and Natural Products Against Animal Tumors and Other Biological Systems”, Third Edition, Cancer Chemother. Rep., 3, 1-104 (1972). Results are expressed as percent inhibition, according to the formula: Inhibition Growth (%)=[100-{(% Growth of Treated/% Growth of Control)×100}]. The flank site of tumor implantation provides reproducible dose/response effects for a variety of chemotherapeutic agents, and the method of measurement (tumor diameter) is a reliable method for assessing tumor growth rates.
An objective of the pre-clinical investigations was to determine whether the Cmax or area under the curve (AUC) of the test compound is critical for the anti-tumor efficacy. An additional goal was to establish a pharmacokinetics/pharmacodynamics (PK/PD) relationship in the FRE/erbB2 tumor model. The FRE/erbB2 is an engineered murine tumor model, which over-expresses human erbB2 with a trans-membrane mutation.

BT-474 tumors = assay: BT-474 xenograft tumor growth in athymic mice; format: in vivo, human; settings: PO; for % Growth inhibition: 22 days
Excerpt: as §1
(§2) Exponentially growing BT-474 cells (RPMI 1640 with 10 mM HEPES, 10% FBS, and pen/strep [Gibco]) were harvested and inoculated SC (5 million cells/animal) into female athymic mice. Trochar pieces of BT-474 tumors were then implanted into the right flank of animals. BT-474 tumor bearing mice (50-320 mm^3 in size, N=40) were randomized in 7 groups consisting 5-6 animals each. Animals were treated with vehicle (PO, BID) or the test compound (PO, QD or BID) as described in Table 4. The tumor measurements and body weight changes were obtained on days 1, 6, 11, 15 and 22. Tumor volume was calculated by the following formula: Tumor volume (mm^3)═(W×W)/2×L (L=length & W=width). Blood samples (˜50 μl) were isolated at 0.5, 1, 2, 4 and 8 hrs after dosing on day 22 for PK-analysis. Tumors were isolated at 0.5 hr post-dosing on day 22 for PD-analysis by ELISA.
Statistical Analysis: ANOVA was conducted on the percentage growth data and planned comparisons were conducted between like-doses. The data were log transformed for the analysis due to the distribution of the values. The Dunnett-Tamahane procedure was used for the multiple comparison analysis.
Thus, oral anti-tumor efficacy of the test compound (QD and BID) was determined against human breast adenocarcinoma model BT-474 which overexpresses erbB2. The test compound administration (QD or BID) was efficacious and caused growth inhibition of BT-474 xenografts (FIGS. 5a and 5b). […] Due to a wide variation in the initial tumor volume, % growth of individual tumor was calculated and an average of each group was used to determine relative anti-tumor efficacy.

[1] = Body weight and tolerability, BT-474 study; format: in vivo, mice; settings: PO
Description: as §2

in vivo = settings: athymic, mouse, plasma
Description: The test compound was either administered using tail vein infusion or orally.
A 1.15 mg/ml solution of the test compound was infused IV at 550 μl/hr for 2 minute ramped infusions followed by 50 μl/hr for 15 min or 4 hour daily infusions. (Projection was based on Cl of the test compound). Athymic female mice bearing FRE/erbB2 tumors (˜100 mm^3 in size) were treated with vehicle, the test compound orally or the test compound intravenously. […] The study was carried out for 7 days. Plasma and tumor samples were isolated for PK and PD analysis at the termination of study.

[2] = Body weight and tolerability, FRE/erbB2 study
Description: A 1.15 mg/ml solution of the test compound was infused IV at 550 μl/hr for 2 minute ramped infusions followed by 50 μl/hr for 15 min or 4 hour daily infusions. […] Athymic female mice bearing FRE/erbB2 tumors (˜100 mm^3 in size) were treated with vehicle, the test compound orally or the test compound intravenously. Body weight changes and tumor measurements were obtained at regular intervals (Days 1, 3, 5, and 7). The study was carried out for 7 days.

COCC(=O)NC/C=C/c1ccc2ncnc(Nc3ccc(Oc4ccc(C)nc4)c(C)c3)c2c1 [Test Compound, E-2-Methoxy-N-(3-{4-(3-methyl-4-(6-methyl-pyridin-3-yloxy)-phenylamino)-quinazolin-6-yl}-allyl)-acetamide]
Tumor vol. Day 1 (Mean ± SE) (FRE/erbB2 tumors; 1.4 mg/kg IV, QD, 15 min/day): 121 ± 24 mm^3
Tumor vol. Day 7 (Mean ± SE) (FRE/erbB2 tumors; 1.4 mg/kg IV, QD, 15 min/day): 749 ± 178 mm^3
% GI (% Growth Inhibition) (FRE/erbB2 tumors; 1.4 mg/kg IV, QD, 15 min/day): 34%
% GI (% Growth Inhibition) (FRE/erbB2 tumors; 1.4 mg/kg IV, QD, 15 min/day, listed as test compound): approximately 34%
Tumor vol. Day 1 (Mean ± SE) (FRE/erbB2 tumors; 10.7 mg/kg IV, 4 hr/day): 117 ± 23 mm^3
Tumor vol. Day 7 (Mean ± SE) (FRE/erbB2 tumors; 10.7 mg/kg IV, 4 hr/day): 273 ± 81 mm^3
% GI (% Growth Inhibition) (FRE/erbB2 tumors; 10.7 mg/kg IV, 4 hr/day): 76%
Tumor vol. Day 1 (Mean ± SE) (FRE/erbB2 tumors; 25 mg/kg PO, QD): 113 ± 18 mm^3
Tumor vol. Day 7 (Mean ± SE) (FRE/erbB2 tumors; 25 mg/kg PO, QD): 531 ± 101 mm^3
% GI (% Growth Inhibition) (FRE/erbB2 tumors; 25 mg/kg PO, QD, compare to Vehicle (IV) group): 54* %
% GI (% Growth Inhibition) (FRE/erbB2 tumors; 25 mg/kg PO, QD, compare to Vehicle (IV) group, listed as test compound): Approximately 54%
FRE tumor volume in treated mice relative to control (FRE/erbB2 tumors; 25 mg/kg orally once a day, seven days of treatment (FIG. 1)): about half of the control
tumor volume increase relative to vehicle control (FRE/erbB2 tumors; about 10 mg/kg IV for seven days over a four hour period each day (FIG. 2)): less than 24%
tumor volume increase relative to vehicle control (FRE/erbB2 tumors; rapid infusion of about 1.4 mg/kg daily over about 15 min/day (FIG. 2)): less than 66%
Tumor volume Day 1 (Mean ± SE) (BT-474 tumors; BID 50 mg/kg): 155 ± 42 mm^3
% Growth inhibition (BT-474 tumors; BID, 15 mg/kg (Total Daily Dose = 30 mg/kg)): 54%
Tumor volume Day 1 (Mean ± SE) (BT-474 tumors; BID, 15 mg/kg): 114 ± 47 mm^3
Tumor volume Day 22 (Mean ± SE) (BT-474 tumors; BID, 15 mg/kg): 520 ± 254 mm^3
% Growth inhibition (BT-474 tumors; BID, 30 mg/kg (Total Daily Dose = 60 mg/kg)): 68%
Tumor volume Day 1 (Mean ± SE) (BT-474 tumors; BID, 30 mg/kg): 161 ± 44 mm^3
Tumor volume Day 22 (Mean ± SE) (BT-474 tumors; BID, 30 mg/kg): 530 ± 240 mm^3
% Growth inhibition (BT-474 tumors; BID, 50 mg/kg (Total Daily Dose = 100 mg/kg)): 68%
Tumor volume Day 22 (Mean ± SE) (BT-474 tumors; BID, 50 mg/kg): 413 ± 98 mm^3
Tumor volume Day 1 (Mean ± SE) (BT-474 tumors; QD 50 mg/kg): 153 ± 40 mm^3
% Growth inhibition (BT-474 tumors; QD, 15 mg/kg): 22%
Tumor volume Day 1 (Mean ± SE) (BT-474 tumors; QD, 15 mg/kg): 78 ± 18 mm^3
Tumor volume Day 22 (Mean ± SE) (BT-474 tumors; QD, 15 mg/kg): 376 ± 79 mm^3
% Growth inhibition (BT-474 tumors; QD, 30 mg/kg): 33%
Tumor volume Day 1 (Mean ± SE) (BT-474 tumors; QD, 30 mg/kg): 139 ± 31 mm^3
Tumor volume Day 22 (Mean ± SE) (BT-474 tumors; QD, 30 mg/kg): 635 ± 189 mm^3
% Growth inhibition (BT-474 tumors; QD, 50 mg/kg): 35%
Tumor volume Day 22 (Mean ± SE) (BT-474 tumors; QD, 50 mg/kg): 608 ± 136 mm^3
average body weight Day 1 ([1]; BID 50 mg/kg): 24 g
average body weight Day 1 ([1]; BID, 15 mg/kg): 24 g
average body weight Day 22 ([1]; BID, 15 mg/kg): 29 g
average body weight Day 1 ([1]; BID, 30 mg/kg): 26 g
average body weight Day 22 ([1]; BID, 30 mg/kg): 30 g
average body weight Day 22 ([1]; BID, 50 mg/kg): 28 g
average body weight Day 1 ([1]; QD 50 mg/kg): 25 g
average body weight Day 1 ([1]; QD, 15 mg/kg): 25 g
average body weight Day 22 ([1]; QD, 15 mg/kg): 29 g
average body weight Day 1 ([1]; QD, 30 mg/kg): 23 g
average body weight Day 22 ([1]; QD, 30 mg/kg): 27 g
average body weight Day 22 ([1]; QD, 50 mg/kg): 29 g
tolerability, body weight loss or animal mortality ([1]; QD or BID, 22 days): well tolerated and there was no body weight loss or animal mortality
AUC(0-t) (in vivo): ~985 ng·h/mL
Cmax (in vivo): ~1200 ng/mL
concentration at 7 days (in vivo; female, intravenous, 1.4 mg/kg): 448 ± 141 ng/mL
concentration at 0.5 h (in vivo; female, oral, 25 mg/kg): 1460 ng/mL
average body weight Day 1 ([2]; 1.4 mg/kg IV, QD, 15 min/day): 23 g
average body weight Day 7 ([2]; 1.4 mg/kg IV, QD, 15 min/day): 24 g
average body weight Day 1 ([2]; 10.7 mg/kg IV, 4 hr/day): 22 g
average body weight Day 7 ([2]; 10.7 mg/kg IV, 4 hr/day): 22 g
average body weight Day 1 ([2]; 25 mg/kg PO, QD): 21 g
average body weight Day 7 ([2]; 25 mg/kg PO, QD): 22 g
body weight loss or mortality ([2]; FRE/erbB2 study, 7 days): did not cause any body weight loss or mortality
